# Test results: US4016158A, “Cephalosporin derivatives” (Roussel-UCLAF, priority 1971, dated 1977)
# Tests used:
# [1] = tested on: Bac. Subt.; experiment: MIC, diffusion method in gelose medium at pH 7 (Table I); type: cell-based; conditions: Bac. Subt., pH 7; read-out: minimum concentration of inhibition
# Procedure: (§1) The antibiotic activity was determined by the diffusion method in a gelose medium at a pH of 7. The following Table expresses the minimum concentration of inhibition in mcg/ml (CMl) for the products against different microbial strains.
# [2] = tested on: Escher. Coli UC 1020; experiment: as above; type: cell-based; conditions: Escherichia coli, UC1020; Escher. Coli UC 1020, pH 7; read-out: minimum concentration of inhibition
# Procedure: as §1
# [3] = tested on: Escher. Coli UC 1261; experiment: as above; type: cell-based; conditions: Escherichia coli, UC1261; Escher. Coli UC 1261, pH 7; read-out: minimum concentration of inhibition
# Procedure: as §1
# [4] = tested on: Pseudomonas; experiment: as above; type: cell-based; conditions: read-out: minimum concentration of inhibition
# Procedure: as §1
# [5] = tested on: Staph. U.C. 1128 P(-); experiment: as above; type: cell-based; conditions: Staph. UC 1128, penicillin resistant, read-out: minimum concentration of inhibition
# Procedure: as §1
# [6] = tested on: Staph. aureus oxford U.C. 1061 P(+); experiment: as above; type: cell-based; conditions: Staphylococcus aureus, UC1061; Staph. aureus oxford UC 1061, penicillin sensitive, pH 7; read-out: minimum concentration of inhibition
# Procedure: as §1
# [7] = tested on: Strept. Fecalis 5432; experiment: as above; type: cell-based; conditions: Strept. Fecalis 5432, pH 7; read-out: minimum concentration of inhibition
# Procedure: as §1
# [8] = tested on: Strept. hemoly. Todd Hewitt; experiment: as above; type: cell-based; conditions: Strept. hemoly. Todd Hewitt, pH 7; read-out: minimum concentration of inhibition
# Procedure: as §1
# [9] = tested on: Shigella sonnei; experiment: bactericidal activity (germs still alive); type: cell-based; set-up: key to germs still alive: +++: all the germs are still alive; +: it remains some colonies; -: it does not remain any germ
# Procedure: (§2) The bactericidal activity of product A was ascertained by determining the number of germs still alive after treatment with increasing doses of antibiotic on a liquid media. From the cultures in tubes having 72 hours (previously described method), were placed on agar in Petri dishes a constant sample of the last tube having grown and of the following tubes where no more growth in transillumination is observed. After 48 hours of culture in the Petri dishes, the number of colonies was ascertained.
# [10] = tested on: Staphylococcus aureus 1098; experiment: bactericidal activity (germs still alive); type: cell-based; set-up: key to germs still alive: +++: all the germs are still alive; +: it remains some colonies; -: it does not remain any germ
# Procedure: as §2
# [11] = tested on: Staphylococcus aureus 54146; experiment: bactericidal activity (germs still alive); type: cell-based; set-up: key to germs still alive: +++: all the germs are still alive; +: it remains some colonies; -: it does not remain any germ
# Procedure: as §2
# [12] = tested on: Staphylococcus aureus 8514; experiment: bactericidal activity (germs still alive); type: cell-based; set-up: key to germs still alive: +++: all the germs are still alive; +: it remains some colonies; -: it does not remain any germ
# Procedure: as §2
# [13] = tested on: Staphylococcus aureus 9482; experiment: bactericidal activity (germs still alive); type: cell-based; set-up: key to germs still alive: +++: all the germs are still alive; +: it remains some colonies; -: it does not remain any germ
# Procedure: as §2
# [14] = tested on: Diplococcus pneumoniae 735; experiment: bactericidal activity (germs still alive); type: cell-based; set-up: key: +++: all the germs are still alive; +: it remains some colonies; -: it does not remain any germ
# Procedure: as §2
# [15] = tested on: Escherichia coli 070; experiment: bactericidal activity (germs still alive); type: cell-based; set-up: key: +++: all the germs are still alive; +: it remains some colonies; -: it does not remain any germ
# Procedure: as §2
# [16] = tested on: Escherichia coli 4965; experiment: bactericidal activity (germs still alive); type: cell-based; set-up: key: +++: all the germs are still alive; +: it remains some colonies; -: it does not remain any germ
# Procedure: as §2
# [17] = tested on: Streptococcus hemolyticus 905; experiment: bactericidal activity (germs still alive); type: cell-based; set-up: key: +++: all the germs are still alive; +: it remains some colonies; -: it does not remain any germ
# Procedure: as §2
# [18] = tested on: Streptococcus hemolyticus 920; experiment: bactericidal activity (germs still alive); type: cell-based; set-up: key: +++: all the germs are still alive; +: it remains some colonies; -: it does not remain any germ
# Procedure: as §2
# [19] = tested on: Staphylococcus aureus; experiment: in vivo antibacterial activity, experimental staphylococcia in mice, oral
# Procedure: The in vivo antibacterial activity for product A was determined in mice with an experimental staphylococcia. 50 male mice weighing 20 to 23 g were divided into 5 groups of 10 mice each and all were infected interperitoneally with 0.5 ml of a 15 hour culture of Staphylococcus aureus in Pasteur nutritive broth diluted 1/3 with distilled water. Each mouse received product A orally 1 hour and 5 hours after the infection.
# [20] = oral toxicity in rats; conditions: rat, in vivo
# Procedure: The oral toxicity of product A was determined on homogenous groups of 10 male rats weighing 100 to 110 g by administering orally a 0.25% by weight dispersion of product A in an aqueous suspension of carboxymethyl cellulose with an esophagus probe. […] The rats in the test were held in a place in which the air was filtered and sterilized by ultraviolet light and the temperature was held at 22° ± 1° C with a controlled humidity.
# [21] = solubility; type: physicochemical
# [22] = 0.5 mg repeated two times, oral
# [23] = 0.5 mg repeated two times, oral, 10 mice
# [24] = 1.0 mg repeated two times, oral
# [25] = 2.0 mg repeated two times, oral
# [26] = 3.0 mg repeated two times, oral
smiles,measurement,setting,value
"CC(C)C1=C(C(=O)O)N2C(=O)[C@@H](NC(=O)[C@H](N)c3ccccc3)[C@H]2SC1 [Example 9, L (+) cis 7-[D (-)-α-aminophenylacetamido]-3-isopropyl-3-cepheme-4-carboxylic acid]",MIC,[1],0.2 µg/mL
same,MIC,[2],100 µg/mL
same,MIC,[3],40 to 100 µg/mL
same,MIC,[4],> 100 µg/mL
same,MIC,[5],2 µg/mL
same,MIC,[6],0.4 µg/mL
same,MIC,[7],20 µg/mL
same,MIC,[8],10 µg/mL
same,germs still alive,[9]; 20 μg/ml,+++
same,germs still alive,[9]; 30 μg/ml,+
same,number of colonies,[9]; 40 μg/ml,9 colonies
same,germs still alive,[9]; 60 μg/ml,-
same,germs still alive,[10]; 1 μg/ml,+++
same,germs still alive,[10]; 2 μg/ml,+++
same,number of colonies,[10]; 3 μg/ml,1 colonies
same,germs still alive,[10]; 5 μg/ml,-
same,germs still alive,[11]; 1 μg/ml,+++
same,germs still alive,[11]; 2 μg/ml,+
same,number of colonies,[11]; 3 μg/ml,3 colonies
same,germs still alive,[11]; 5 μg/ml,-
same,germs still alive,[12]; 1 μg/ml,+++
same,germs still alive,[12]; 2 μg/ml,+++
same,number of colonies,[12]; 3 μg/ml,a few
same,germs still alive,[12]; 5 μg/ml,-
same,germs still alive,[13]; 1 μg/ml,+++
same,number of colonies,[13]; 2 μg/ml,1 colonie
same,number of colonies,[13]; 3 μg/ml,2 colonies
same,germs still alive,[13]; 5 μg/ml,-
same,germs still alive,[14]; 1 μg/ml,+++
same,germs still alive,[14]; 2 μg/ml,-
same,germs still alive,[14]; 3 μg/ml,-
same,germs still alive,[15]; 30 μg/ml,+++
same,germs still alive,[15]; 40 μg/ml,-
same,germs still alive,[16]; 30 μg/ml,+++
same,germs still alive,[16]; 40 μg/ml,-
same,germs still alive,[17]; 1 μg/ml,+++
same,germs still alive,[17]; 2 μg/ml,-
same,germs still alive,[17]; 3 μg/ml,-
same,germs still alive,[18]; 2 μg/ml,+++
same,germs still alive,[18]; 3 μg/ml,-
same,Mice living on 8th day,[19]; [22],7/10
same,Mice living on 8th day (%),[19]; [22],70%
same,Mortality at 10h,[19]; [23],1
same,Mortality at 22h,[19]; [23],1
same,Mortality at 70h,[19]; [23],1
same,Mice living on 8th day,[19]; [24],9/10
same,Mice living on 8th day (%),[19]; [24],90%
same,Mortality at 70h,"[19]; 1.0 mg repeated two times, oral, 10 mice",1
same,Mice living on 8th day,[19]; [25],10/10
same,Mice living on 8th day (%),[19]; [25],100%
same,Mice living on 8th day,[19]; [26],10/10
same,Mice living on 8th day (%),[19]; [26],100%
same,antibacterial activity,"[19]; administered orally, 1 hour and 5 hours after infection",good antibacterial activity
same,LD50,[20],> 800 mg/kg
same,abnormal symptoms,[20]; 800 mg/kg,none of the rats presented any abnormal symptoms
same,solubility in ethanol,[21]; ethanol,slightly soluble
same,solubility in ether,[21]; ether,insoluble
